Drawing on PubChem BioAssay AID248 (DTP/NCI, 2004), this text covers T/C for 19 molecules.

Molecules are shown by their SMILES. Inconclusive results and toxic doses are left out.

This assay concerns L1210 leukemia ip in BDF1 mice, survival T/C. The assay can be described thus: NCI In Vivo Anticancer Drug Screen. Data for tumor model L1210 Leukemia (intraperitoneal) in B6D2F1 (BDF1) mice. Conditions: endpoint: mean survival time, higher = longer survival. A digest of the protocol: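 Each compound was tested against a transplantable tumor grown in mice. The endpoint was survival, with treated animals benchmarked against vehicle controls as a simple ratio.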

The mark [1] stands for this setting: dose: 100.0 mg/kg/injection, schedule: Q04DX002 (ip), vehicle: Klucel (hydroxypropylcellulose) (HPC).
[2] abbreviates: dose: 200.0 mg/kg/injection, schedule: Q04DX002 (ip), vehicle: Klucel (hydroxypropylcellulose) (HPC).
Where [3] appears, read: dose: 400.0 mg/kg/injection, schedule: Q04DX002 (ip), vehicle: Klucel (hydroxypropylcellulose) (HPC).
Setting [4] is: dose: 100.0 mg/kg/injection, schedule: Q01DX009 (ip), vehicle: Klucel (hydroxypropylcellulose) (HPC).
[5] abbreviates: dose: 200.0 mg/kg/injection, schedule: Q01DX009 (ip), vehicle: Klucel (hydroxypropylcellulose) (HPC).
The mark [6] stands for this setting: dose: 100.0 mg/kg/injection, schedule: Q01DX001 (ip), vehicle: saline.
The mark [7] stands for this setting: dose: 200.0 mg/kg/injection, schedule: Q01DX001 (ip), vehicle: saline.
The mark [8] stands for this setting: dose: 400.0 mg/kg/injection, schedule: Q01DX001 (ip), vehicle: saline.
[9] abbreviates: dose: 100.0 mg/kg/injection, schedule: Q01DX009 (ip), vehicle: saline.
The mark [10] stands for this setting: dose: 200.0 mg/kg/injection, schedule: Q01DX009 (ip), vehicle: saline.
Where [11] appears, read: dose: 100.0 mg/kg/injection, schedule: Q04DX003 (ip), vehicle: saline with Tween-80.
Where [12] appears, read: dose: 200.0 mg/kg/injection, schedule: Q01DX009 (ip), vehicle: saline with Tween-80.
The mark [13] stands for this setting: dose: 50.0 mg/kg/injection, schedule: Q01DX009 (ip), vehicle: saline with Tween-80.
[14] abbreviates: dose: 100.0 mg/kg/injection, schedule: Q01DX009 (ip), vehicle: saline with Tween-80.

For `CCCCCCCCCCCCCCOc1ccc(S(=O)(=O)/N=C(\N)NC(N)=NCCCCCCCCCC)cc1`, the T/C is, setting by setting: under setting [1], 89 % of control; under setting [2], 101 % of control; under setting [3], 89 % of control.
Consider `CC(/C=C/c1ccccc1)=N\O`, for which the T/C runs as follows: (dose: 100.0 mg/kg/injection, schedule: Q01DX009 (ip), vehicle: saline sonified) 91 % of control; (dose: 200.0 mg/kg/injection, schedule: Q01DX009 (ip), vehicle: saline sonified) 94 % of control; (dose: 400.0 mg/kg/injection, schedule: Q01DX009 (ip), vehicle: saline sonified) 100 % of control.
With `O=c1[nH]c2cnccc2c(=O)n1OS(=O)(=O)c1ccccc1`, the T/C is 90 % of control (dose: 50.0 mg/kg/injection, schedule: Q01DX009 (ip), vehicle: Klucel (hydroxypropylcellulose) (HPC)); 90 % of control under setting [4]; 97 % of control under setting [5].
On to `Cc1ccc(S(=O)(=O)/C=C(\C=C/c2ccccc2)c2ccccc2)cc1`, for which the T/C is, setting by setting: (dose: 100.0 mg/kg/injection, schedule: Q04DX003 (ip), vehicle: acetone) 95 % of control; (dose: 200.0 mg/kg/injection, schedule: Q04DX003 (ip), vehicle: acetone) 95 % of control.
As for `CC(=O)Nc1cc2c(cc1CC(=O)O)OCO2`, the T/C is, setting by setting: (dose: 50.0 mg/kg/injection, schedule: Q01DX001 (ip), vehicle: saline) 101 % of control; under setting [6], 95 % of control; under setting [7], 95 % of control; under setting [8], 101 % of control.
On to `CNC(=O)CCCCC(=O)NC`, for which the T/C is, setting by setting: under setting [9], 107 % of control; (dose: 100.0 mg/kg/injection, schedule: Q04DX003 (ip), vehicle: saline) 103 % of control; under setting [10], 102 % of control; (dose: 200.0 mg/kg/injection, schedule: Q04DX003 (ip), vehicle: saline) 98 % of control; (dose: 400.0 mg/kg/injection, schedule: Q01DX009 (ip), vehicle: saline) 108 % of control; (dose: 400.0 mg/kg/injection, schedule: Q04DX003 (ip), vehicle: saline) 101 % of control.
`CC1(C)C/C(=C/c2ccc([N+](=O)[O-])cc2[N+](=O)[O-])C(=O)O1`: the T/C runs as follows: (dose: 50.0 mg/kg/injection, schedule: Q01DX001 (ip), vehicle: carboxymethylcellulose (CMC)) 100 % of control; (dose: 100.0 mg/kg/injection, schedule: Q01DX001 (ip), vehicle: carboxymethylcellulose (CMC)) 94 % of control; (dose: 200.0 mg/kg/injection, schedule: Q01DX001 (ip), vehicle: carboxymethylcellulose (CMC)) 94 % of control; (dose: 400.0 mg/kg/injection, schedule: Q01DX001 (ip), vehicle: carboxymethylcellulose (CMC)) 100 % of control.
As for `S=P(c1ccccc1)(c1ccccc1)P(=S)(c1ccccc1)c1ccccc1`, the T/C runs as follows: under setting [1], 100 % of control; under setting [2], 92 % of control; under setting [3], 92 % of control.
Take `C=CCN(C)N=Nc1ccccc1C(N)=O`: the T/C is 158 % of control (dose: 88.0 mg/kg/injection, schedule: Q01DX009 (ip), vehicle: saline with Tween-80); 122 % of control (dose: 88.0 mg/kg/injection, schedule: Q04DX003 (ip), vehicle: saline with Tween-80); 116 % of control under setting [11]; 150 % of control (dose: 133.0 mg/kg/injection, schedule: Q01DX009 (ip), vehicle: saline with Tween-80); 109 % of control (dose: 176.0 mg/kg/injection, schedule: Q01DX001 (ip), vehicle: saline with Tween-80); 95 % of control under setting [12].
`Clc1ccc(C[P+](c2ccccc2)(c2ccccc2)c2ccccc2)cc1Cl`: the T/C is, setting by setting: (dose: 0.62 mg/kg/injection, schedule: Q01DX009 (ip), vehicle: acetone) 98 % of control; (dose: 1.25 mg/kg/injection, schedule: Q01DX009 (ip), vehicle: acetone) 101 % of control; (dose: 2.5 mg/kg/injection, schedule: Q01DX009 (ip), vehicle: acetone) 101 % of control; (dose: 2.5 mg/kg/injection, schedule: Q04DX003 (ip), vehicle: acetone) 94 % of control; (dose: 3.6 mg/kg/injection, schedule: Q01DX009 (ip), vehicle: saline with Tween-80) 97 % of control; (dose: 5.0 mg/kg/injection, schedule: Q01DX001 (ip), vehicle: acetone) 90 % of control. Further, the T/C was 106 % of control (dose: 5.6 mg/kg/injection, schedule: Q01DX009 (ip), vehicle: saline with Tween-80); 102 % of control (dose: 8.4 mg/kg/injection, schedule: Q01DX009 (ip), vehicle: saline with Tween-80); 97 % of control (dose: 10.0 mg/kg/injection, schedule: Q01DX001 (ip), vehicle: acetone).
On to `O=S(=O)(O)CCc1ccccn1`, for which the T/C is 106 % of control (dose: 50.0 mg/kg/injection, schedule: Q01DX009 (ip), vehicle: saline); 109 % of control under setting [9]; 92 % of control under setting [10].
For `OCCOCCOCCOCCO`, the T/C under setting [6] is 109 % of control, the T/C under setting [7] is 105 % of control and the T/C under setting [8] was 100 % of control.
With `COc1cccc(C(C)(C)CC(=O)O)c1`, the T/C was 90 % of control under setting [13], 90 % of control under setting [14] and 87 % of control under setting [12].
For the molecule `O=Cc1ccc([N+](=O)[O-])o1`, the T/C was 94 % of control (dose: 10.0 mg/kg/injection, schedule: Q01DX001 (ip), vehicle: saline); 102 % of control (dose: 12.5 mg/kg/injection, schedule: Q04DX002 (ip), vehicle: other); 100 % of control (dose: 20.0 mg/kg/injection, schedule: Q01DX001 (ip), vehicle: saline); 97 % of control (dose: 25.0 mg/kg/injection, schedule: Q04DX002 (ip), vehicle: other); 94 % of control (dose: 40.0 mg/kg/injection, schedule: Q01DX001 (ip), vehicle: saline).
For the molecule `CCC/C=N/NC(=O)CCCCCCCCCCCCCCCCC`, the T/C is, setting by setting: under setting [4], 86 % of control; under setting [5], 88 % of control; (dose: 400.0 mg/kg/injection, schedule: Q01DX009 (ip), vehicle: Klucel (hydroxypropylcellulose) (HPC)) 88 % of control.
Consider `COC(=O)N/N=C/c1c[nH]c2ccccc12`, for which the T/C under setting [4] is 94 % of control and the T/C under setting [5] was 106 % of control.
In the case of `CC(=O)Oc1cc2c(OC(C)=O)c(-c3c(C)cc4c(C(C)C)c(OC(C)=O)c(OC(C)=O)cc4c3OC(C)=O)c(C)cc2c(C(C)C)c1OC(C)=O`, the T/C under setting [11] is 86 % of control.
Regarding `CCC(C(C)N1CC(=O)NC(=O)C1)N1CC(=O)NC(=O)C1` (configuration not stated), the T/C is, setting by setting: (dose: 0.5 mg/kg/injection, schedule: Q01DX009 (ip), vehicle: Klucel (hydroxypropylcellulose) (HPC)) 154 % of control; (dose: 1.0 mg/kg/injection, schedule: Q04DX003 (ip), vehicle: Klucel (hydroxypropylcellulose) (HPC)) 120 % of control; (dose: 2.0 mg/kg/injection, schedule: Q01DX009 (ip), vehicle: Klucel (hydroxypropylcellulose) (HPC)) 102 % of control; (dose: 2.0 mg/kg/injection, schedule: Q04DX003 (oral), vehicle: Klucel (hydroxypropylcellulose) (HPC)) 123 % of control; (dose: 4.0 mg/kg/injection, schedule: Q01DX009 (ip), vehicle: Klucel (hydroxypropylcellulose) (HPC)) 91 % of control; (dose: 4.0 mg/kg/injection, schedule: Q04DX003 (ip), vehicle: Klucel (hydroxypropylcellulose) (HPC)) 203 % of control. Also, the T/C was 219 % of control (dose: 8.0 mg/kg/injection, schedule: Q04DX003 (ip), vehicle: Klucel (hydroxypropylcellulose) (HPC)); 161 % of control (dose: 8.0 mg/kg/injection, schedule: Q04DX003 (oral), vehicle: Klucel (hydroxypropylcellulose) (HPC)); 96 % of control (dose: 16.0 mg/kg/injection, schedule: Q04DX003 (ip), vehicle: Klucel (hydroxypropylcellulose) (HPC)); 119 % of control (dose: 32.0 mg/kg/injection, schedule: Q04DX003 (ip), vehicle: Klucel (hydroxypropylcellulose) (HPC)); 93 % of control (dose: 64.0 mg/kg/injection, schedule: Q04DX003 (oral), vehicle: Klucel (hydroxypropylcellulose) (HPC)).
For `CCC/C(=N\NC(=O)c1ccc(OC)cc1)c1ccccc1`, the T/C under setting [13] is 94 % of control, the T/C under setting [14] is 102 % of control and the T/C under setting [12] is 94 % of control.
